Experimental data: US20260109693A1, “BUTENOLIDE COMPOUNDS CONTAINING THIAZOLIDINONE STRUCTURE AS WELL AS PREPARATION METHOD THEREFOR AND USE THEREOF” (priority 2023, published 2026)
Values after ≈ are worked out from the molar mass of the structure shown.

Assays:
[1] = test system: Pathogenic fungi of pepper phytophthora disease; experiment: In vitro fungicidal activity, mycelial growth rate method; format: cell-based; details: 50 mg/L, PDA plate; for inhibition at 50 µg/mL: Phytophthora
[2] = test system: Pathogenic fungi of rice bakanae disease; experiment: as above; format: cell-based; details: 50 mg/L, PDA plate
[3] = test system: Pathogenic fungi of rape sclerotinia; experiment: as above; format: cell-based; details: 50 mg/L, PDA plate; for inhibition at 50 µg/mL: Sclerotinia
[4] = test system: Rice bakanae pathogenic fungi; experiment: Precise toxicity testing, five concentration gradients of toxic PDA plates; format: cell-based
[5] = test system: Wheat scab pathogenic fungi; format: cell-based
[6] = test system: Rape sclerotinia pathogenic fungi; experiment: Precise toxicity testing, five concentration gradients of toxic PDA plates; format: cell-based
[7] = test system: Pathogenic fungi of tomato gray mold; experiment: In vitro fungicidal activity, mycelial growth rate method; format: cell-based; details: 50 mg/L, PDA plate
[8] = test system: Pathogenic fungi of rice sheath blight; experiment: as above; format: cell-based; details: 50 mg/L, PDA plate
[9] = test system: Pathogenic fungi of wheat scab; experiment: whole plant or invertebrate; format: cell-based; details: for inhibition rate, Pathogenic fungi of wheat scab: 50 mg/L, PDA plate, mycelial growth; for inhibition at 50 µg/mL: read-out: inhibition rate, Pathogenic fungi of wheat scab
corn rust disease = experiment: In vivo protective activity, live pot cultivation method; details: 400 mg/L, sprayed 24 hours before inoculation, potted plants
Method: (§1) The determination method was as follows: the live pot cultivation determination method was used, that is, the compound sample to be tested was dissolved in a small amount of solvent (the type of solvent was such as acetone, methanol, and DMF, and was selected according to its dissolving ability for the sample, with a volume ratio of solvent amount to spray amount equal to or less than 0.05), diluted with water containing 0.1% Tween 80, and prepared into a test solution with a required concentration. With a crop sprayer, the test solution was sprayed on a pathogen host plant (the host plant was a standard potted seedling cultivated in a greenhouse), and inoculation with the pathogen was performed after 24 hours. Based on the characteristics of the pathogen, plants that require temperature control and moisturizing cultivation were inoculated and placed in an artificial climate chamber for cultivation, and transferred to a greenhouse for cultivation after the pathogen infection was completed. […] The disease prevention efficacy of the compound was evaluated after the disease had fully developed (usually one week).
(§2) At a concentration of 400 mg/L, the in vivo protective activity determination results of some compounds are as follows: […]

wheat powdery mildew = experiment: as above; details: 400 mg/L, sprayed 24 hours before inoculation, potted plants
Method: as §1, §2

cucumber downy mildew = experiment: as above; details: 400 mg/L, sprayed 24 hours before inoculation, potted plants
Method: as §1, §2

In the case of “5-(4-methyl-2-oxo-1-oxaspiro[4,5]-dec-3-en-3-ethylidene)-2-thio-4-thiazolidinone [Compound 3-1]”, the “inhibition rate, Pathogenic fungi of pepper phytophthora disease” value [1] is reported as 59.7 ± 0.4%, the “inhibition rate, Pathogenic fungi of rice bakanae disease” value [2] is reported as 100.0 ± 0.0% and the “inhibition rate, Pathogenic fungi of rape sclerotinia” value (“inhibition rate … of rape sclerotinia” below) [3] is reported as 82.4 ± 1.7%. The EC50 [4] was 0.72 µg/mL, the EC90 [4] was 5.04 µg/mL and the EC50 [5] was 0.079 µg/mL. For the same molecule, the EC90 [5] was 4.97 µg/mL, the EC50 ([6]; Rape sclerotinia) was 2.02 µg/mL and the EC90 ([6]; Rape sclerotinia) was 9.81 µg/mL. The “inhibition rate, Pathogenic fungi of tomato gray mold” value (“inhibition rate … of tomato gray mold” for short) [7] was 62.4 ± 2.5%, the “inhibition rate, Pathogenic fungi of rice sheath blight” value [8] was 45.2 ± 2.1% and the “inhibition rate, Pathogenic fungi of wheat scab” value (from here on “inhibition rate … of wheat scab”) [9] was 100.0 ± 0.0%.

For “5-(4-phenyl-2-oxo-1-oxaspiro[4,5]-dec-3-en-3-ethylidene)-2-thio-4-thiazolidinone [Compound 3-4]”, the “inhibition rate, Pathogenic fungi of pepper phytophthora disease” value [1] was 44.8 ± 0.3%, the “inhibition rate, Pathogenic fungi of rice bakanae disease” value [2] was 15.8 ± 2.4% and the “inhibition rate … of rape sclerotinia” value [3] was 68.3 ± 4.2%. For the same molecule, the “inhibition rate … of tomato gray mold” value [7] was 33.6 ± 1.7%, the “inhibition rate, Pathogenic fungi of rice sheath blight” value [8] was 31.9 ± 5.6% and the “inhibition rate … of wheat scab” value [9] was 27.7 ± 2.9%.

For COC(=O)Nc1nc2ccccc2[nH]1 [Carbendazim], the inhibition at 50 µg/mL [1] was 4.6 ± 1.2%, the inhibition at 50 µg/mL [2] was 87.5 ± 3.1% and the inhibition at 50 µg/mL [3] was 72.5 ± 2.1%. The inhibition at 50 µg/mL [7] was 5.4 ± 2.4%, the inhibition at 50 µg/mL [8] was 100% and the inhibition at 50 µg/mL [9] was 100%.

CCCCNC1=NC(=O)C(=C(C)C2=C(c3ccccc3)C(C)(C)OC2=O)S1 [Compound I-3-5] was tested, and the “efficacy against corn rust disease” value (corn rust disease) was 86%.

In the case of CC(=C1SC(Nc2ccc(C(F)(F)F)cc2)=NC1=O)C1=C(c2ccc(Cl)cc2)C2(CCCCC2)OC1=O [Compound I-6-9], the “efficacy against wheat powdery mildew” value (wheat powdery mildew) is reported as 88%.

CCCCNC1=NC(=O)C(=C(C)C2=C(c3ccc(Br)cc3)C3(CCCCC3)OC2=O)S1 [Compound I-7-5] was tested, and the “efficacy against cucumber downy mildew” value (cucumber downy mildew) was 95%.

CSc1ccc(C2=C(C(C)=C3SC(Nc4ccccc4-c4ccc(Cl)cc4)=NC3=O)C(=O)OC23CCCCC3)cc1 [Compound I-10-17] was tested, and the “efficacy against corn rust disease” value (corn rust disease) was 89%.

In the case of CC(=C1SC(Nc2ccc(F)cc2-c2ccc(Cl)c(Cl)c2)=NC1=O)C1=C(c2ccc(C(F)(F)F)cc2)C2(CCCCC2)OC1=O [Compound I-12-15], the “efficacy against cucumber downy mildew” value (cucumber downy mildew) is reported as 93%.

CC(=C1SC(NCC(C)C)=NC1=O)C1=C(c2cccc(Cl)c2)C2(CCCCC2)OC1=O [Compound I-14-6] was tested, and the “efficacy against wheat powdery mildew” value (wheat powdery mildew) was 85%.

In the case of CC(=C1SC(Nc2ccccc2)=NC1=O)C1=C(c2cccc(C(F)(F)F)c2)C2(CCCCC2)OC1=O [Compound I-16-7], the “efficacy against wheat powdery mildew” value (wheat powdery mildew) is reported as 81%.

For CCOC(=O)C(C#N)=C(N)c1ccccc1 [Phenamacril], the “inhibition rate, Pathogenic fungi of pepper phytophthora disease” value [1] was 8.1 ± 2.1%, the “inhibition rate, Pathogenic fungi of rice bakanae disease” value [2] was 100.0 ± 0.0% and the “inhibition rate … of rape sclerotinia” value [3] was 23.0 ± 1.3%. The EC50 [4] was 0.071 µg/mL (≈ 0.328 µM), the EC90 [4] was 0.54 µg/mL (≈ 2.5 µM) and the EC50 [5] was 0.078 µg/mL (≈ 0.361 µM). For the same molecule, the EC90 [5] was 5.60 µg/mL (≈ 25.9 µM), the “inhibition rate … of tomato gray mold” value [7] was 13.1 ± 0.3% and the “inhibition rate, Pathogenic fungi of rice sheath blight” value [8] was 11.5 ± 1.4%. For the same molecule, the “inhibition rate … of wheat scab” value [9] was 100.0 ± 0.0%.

Cc1nc(C(F)(F)F)c(C(=O)Nc2c(Br)cc(OC(F)(F)F)cc2Br)s1 [Thifluzamide] gave an inhibition at 50 µg/mL [1] of 15.1 ± 2.8%, an inhibition at 50 µg/mL [2] of 5.8 ± 1.4% and an inhibition at 50 µg/mL [3] of 83 ± 1.2%. The EC50 ([6]; Sclerotinia) was 1.53 µg/mL (≈ 2.9 µM), the EC90 ([6]; Sclerotinia) was 16.3 µg/mL (≈ 30.8 µM) and the inhibition at 50 µg/mL [7] was 28.2 ± 1.2%. It also gave an inhibition at 50 µg/mL [8] of 90.1 ± 4.5% and an inhibition at 50 µg/mL [9] of 13.4 ± 6.3%.
